# Measured values taken from US10233168B2, “14-hydroxy-docosahexaenoic acid compounds” (The Brigham And Women's Hospital, Inc., priority 2008, dated 2019).
# What was measured:
# peritoneal MΦs [1] = settings: literature ref. 13; cited from earlier work
# peritoneal MΦs [2] = assay: MΦ phagocytosis of FITC-labeled zymosan; assay type: cell-based, mice; settings: for enhancement of MΦ phagocytosis of zymosan: 15 min compound, then FITC-labeled zymosan 30 min, 37° C.
# Protocol: (§1) The 7,14-dihydroxy-containing products were isolated from methyl formate fractions obtained from murine MΦs via RP-HPLC (Agilent 1100 series) using a Beckman C18 column (250 mm×10 mm×5 μm) and methanol/water (65/35; v/v) ramped to 85/15 (v/v) for 30 min. Their actions were assessed in murine zymosan A-induced peritonitis (19). Peritonitis was initiated by intraperitoneal (i.p.) administration of 1 mg zymosan A in 1 ml of sterile saline, and each compound was administered i.v. 5 min before zymosan. At 2 h, mice were sacrificed, and peritoneal exudates harvested (5 ml DPBS^−/− without calcium and magnesium), identified and enumerated by light microscopy and FACS. Resident MΦs were identified by FACS (8). To assess pro-resolving actions, peritoneal MΦs (24-well plate, 10^5 cells/well) from naïve mice were incubated with each compound (15 min, pH 7.45) followed by addition of FITC-labeled Zymosan A (30 min, 37° C.). Trypan blue was used to quench extracellular zymosan particles (1 min, 37° C.) followed by DPBS^+/+ (pH 7.45), and phagocytosis quantified using a Perkin-Elmer Victor^3.
# PMN = assay: murine zymosan A-induced peritonitis, exudate PMN; assay type: in vivo, mice
# Protocol: as §1
# lipoxygenase (LOX) = assay: LC/MS/MS lipidomics of peritonitis exudates with LOX inhibitor; assay type: in vivo, mice; settings: exudates obtained with the LOX inhibitor, n=3
# Protocol: In view of the actions of specialized chemical mediators in resolution (6, 7), 17-HDHA was monitored as a biomarker of activation and conversion of endogenous DHA, as well as employed targeted lipidomics to query whether other pathways were operative (see FIG. 1). During this course of peritonitis, PMN rapidly entered, reaching max within 12 h. In this self-resolving system (19), PMN declined and were lost from exudates, thus defining resolution (FIG. 1). Unbiased targeted mediator lipidomics employing LC/MS/MS-based analyses were carried out with these exudates. In addition to 17S-HDHA, a marker of resolvin and protectin biosynthesis (6), endogenous DHA was converted to 14S-hydroxydocosahexaenoic acid (14S-HDHA).
smiles,measurement,setting,value
"CC/C=C\C[C@H](O)\C=C/C=C/C=C/[C@H](O)C/C=C\C/C=C\CCC(=O)O [PD1, 10R,17S-dihydroxydocosa-4Z,7Z,11E,13E,15Z,19Z-hexaenoic acid]",concentration (as low as) enhancing MΦ phagocytosis,peritoneal MΦs [1],1 nM
"CC/C=C\C/C=C\CC(O)C=CC=CC=CC(O)C/C=C\CCC(=O)O (stereo not drawn) [MaR1, 7,14-dihydroxydocosa-4Z,8,10,12,16Z,19Z-hexaenoic acid]",enhancement of MΦ phagocytosis of zymosan,peritoneal MΦs [2]; FIG. 3D,enhances phagocytosis
same,potency compared to RvE1 and PD1,"peritoneal MΦs [2]; FIG. 3, inset comparison at 1 nM",comparable potency
same,dose (as low as) that potently reduced infiltration of PMN into sites of inflammation,"PMN; i.v. before i.p. zymosan, dose response FIG. 3C",0.2 ng/mouse
same,anti-inflammatory action regulating PMN entry into zymosan-induced peritonitis,"PMN; nanogram quantities per mouse, FIG. 3A",stopping PMN infiltration
"CC[C@@H](O)/C=C/C=C\C[C@@H](O)/C=C/C=C/C=C\[C@@H](O)CCCC(=O)O [RvE1, 5S,12R,18R-trihydroxyeicosa-6Z,8E,10E,14Z,16E-pentaenoic acid]",concentration (as low as) enhancing MΦ phagocytosis,peritoneal MΦs [1],1 nM
"CCCCC[C@H](O)/C=C/[C@H]1[C@H](O)CC(=O)[C@@H]1C/C=C\CCCC(=O)O [PGE2, prostaglandin E2, reference compound]",enhancement of MΦ phagocytosis of zymosan,peritoneal MΦs [2]; FIG. 3D,did not enhance phagocytosis
"CC/C=C\C/C=C\C[C@H](O)/C=C/C=C\C=C\[C@@H](O)C/C=C\CCC(=O)O [double dioxygenation product, 7S,14S-dihydroxydocosa-4Z,8E,10Z,12E,16Z,19Z-hexaenoic acid]",enhancement of MΦ phagocytosis of zymosan,peritoneal MΦs [2]; FIG. 3D,active
same,potency in phagocytosis compared with the new product isolated from MΦs,"peritoneal MΦs [2]; direct comparison, FIG. 3D",less potent
same,PMN infiltration in zymosan-induced peritonitis,"PMN; 0.1 ng dose per mouse, leukocytes enumerated after 2 h, FIG. 3B",reduced PMN infiltration
same,potency on PMN infiltration compared with the MΦ isolated material,"PMN; 0.1 ng/mouse each, FIG. 3B",less potent
O=c1ccc2cc(O)c(O)cc2o1 [esculetin],17S-HDHA and 14S-HDHA in peritonitis exudates,lipoxygenase (LOX),Neither product was identified
